Read-outs that look alike come from different tables or passages of the source.
Assays:
[1] = set-up: species or system male New Zealand rabbits; conditions: rabbit, in vivo, 0.25 mg/kg, 300 min
From the text: (§1) Two animal species were used, i.e., rats and rabbits.
(§2) Monosialotetrahexosylganglioside GM1 labeled on the sphingosine moiety according to the method of Tettamanti et al. (in "Gangliosides in Neurological and Neuromuscular Function, Development and Repair" Eds. M. M. Rapport, A. Gorio, Raven Press. (N.Y.) 1981, p. 225-240) was used as a representative ganglioside molecule.
(§3) The ganglioside mixture used was similar to the natural mixture that is obtained by extraction and purification from bovine cerebral cortex. The mixture was made up by compounding the single ganglioside fractions in the following percent proportions:
(§4) The monosialotetrahexosylganglioside GM1 contained a ^3 H-label on sphingosine as specified under item (a) as a tracer for the mixture.
(§5) Labeled inner ester derivative of monosialoganglioside was obtained from monosialoganglioside labeled on the sphingosine moiety according to the method cited under item (a). The inner esterification procedure according to the method described in applicant's co-pending U.S. application Ser. No. 290,106, filed on Aug. […]
(§6) After treatment the animals were housed in metabolic cages. […] The total radioactivity of the samples was counted by means of a Tricarb scintillator (Packard). […]
(§7) However, increased pulmonary absorption of the compounds after nebulization of the aqueous solutions was recorded (See Table 2).

[2] = set-up: species or system male Sprague Dawley rats; conditions: rat, in vivo, 0.25 mg/kg, 300 min
From the text: as §1, §2, §3, §4
as §5, with “Aug. 4, 1981, was used for this labeled ganglioside to obtain the labeled inner ester derivative.” for “Aug.”
as §6

[3] = set-up: species or system male Sprague Dawley rats; conditions: rat, in vivo, 0.25 mg/kg, 300 min; remark: listed apart in the source
From the text: as §1, §2, §3, §4
as §5, with “Aug. 4, 1981, was used for this labeled ganglioside to obtain the labeled inner ester derivative.” for “Aug.”
as §6

[4] = set-up: species or system male Sprague Dawley rats; conditions: rat, in vivo, 0.25 mg/kg, 300 min; remark: listed apart in the source
From the text: as §1, §2, §3, §4, §5
After treatment the animals were housed in metabolic cages. […] The total radioactivity of the samples was counted by means of a Tricarb scintillator (Packard).
as §7

[5] = set-up: species or system male New Zealand rabbits; conditions: rabbit, in vivo, 0.25 mg/kg, 300 min; remark: listed apart in the source
From the text: as §1, §2, §3, §4
as §5, with “Aug. 4, 1981, was used for this labeled ganglioside to obtain the labeled inner ester derivative.” for “Aug.”
as §6

[6] = set-up: species or system male New Zealand rabbits; conditions: rabbit, in vivo, 0.25 mg/kg, 300 min; remark: listed apart in the source
From the text: as §1, §2, §3, §4
as §5, with “Aug. 4, 1981, was used for this labeled ganglioside to obtain the labeled inner ester derivative.” for “Aug.”
as §6

| Molecule | Bioavailability (Intramuscular route = 100) [1] [%] | Bioavailability (Intramuscular route = 100) [2] [%] | Bioavailability (Intramuscular route = 100) [3] | Bioavailability (Intramuscular route = 100) [4] [%] | Bioavailability (Intramuscular route = 100) [5] [%] | Bioavailability (Intramuscular route = 100) [6] |
| --- | --- | --- | --- | --- | --- | --- |
| Monosialotetrahexosylganglioside GM1 [Monosialoganglioside] | 32 | 10.5 | 85 | 34 | 12 | 87 |
| CCCCCCCCCCCCC/C=C/[C@@H](O)[C@H](CO[C@@H]1O[C@H](CO)[C@@H](O[C@@H]2O[C@H](CO)[C@H](O[C@@H]3O[C@H](CO)[C@H](O)[C@H](O[C@@H]4O[C@H](CO)[C@H](O)[C@H](O)[C@H]4O)[C@H]3NC(C)=O)[C@@H]3O[C@@]4(C[C@H](O)[C@@H](NC(C)=O)[C@H]([C@H](O)[C@H](O)CO)O4)C(=O)O[C@@H]23)[C@H](O)[C@H]1O)NC(=O)CCCCCCCCCCCCCCCCC [Monosialoganglioside inner ester] | 33.5 | 12 | 80 | 35 | 11.5 | 85 |

Reference: US4639437A, “Kit or device and method for administering gangliosides and derivatives thereof by inhalation and pharmaceutical compositions suitable therefor” (Fidia, S.p.A., priority 1984, dated 1987)
